Reference: patent US20230085307A1, “PYRIDAZINONE COMPOUND AND HERBICIDE” (NISSAN CHEMICAL CORPORATION, priority 2019, published 2023)

Key:
[1] = test system: chickweed; assay: Test Example 5: herbicidal effect by foliage application, plastic box (Table 20, symbol P); assay type: in vivo, common chickweed (Stellaria media); conditions: foliage application, AAH 320 g/ha, evaluated three weeks after application
How it was run: (§1)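 Plants were sown into sterilized diluvial soil under about 1.5 cm cover and kept in a greenhouse at 25° C. to 30° C. Fourteen days on, foliage received an even spray of the diluted emulsion. Herbicidal or crop effect was judged three weeks afterwards.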

[2] = test system: windgrass; assay: Test Example 4: herbicidal effect by soil treatment (Table 19, symbol L); assay type: in vivo, windgrass (Apera spica-venti); conditions: amount of applied herbicide 320 g/ha
How it was run: (§2)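 Pre-emergence style soil spray: seeds under ~1.5 cm sterilized diluvial soil received a uniform coat of emulsion diluted to the predetermined herbicide amount. Greenhouse 25–30° C; readout at week three on previously defined criteria.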

[3] = test system: velvetleaf; assay: Test Example 4: herbicidal effect by soil treatment (Table 19, symbol M); assay type: in vivo, velvetleaf (Abutilon theophrasti); conditions: amount of applied herbicide 320 g/ha
How it was run: as §2

[4] = test system: velvetleaf; assay: Test Example 5: herbicidal effect by foliage application, plastic box (Table 20, symbol M); assay type: in vivo, velvetleaf (Abutilon theophrasti); conditions: foliage application, AAH 320 g/ha, evaluated three weeks after application
How it was run: as §1

[5] = test system: late watergrass; assay: Test Example 2: herbicidal activity, application during weed generation under submerged conditions (Table 17, symbol A); assay type: in vivo, late watergrass (Echinochloa oryzicola); conditions: AAH 320 g/ha; application during weed generation, submerged conditions
How it was run: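 In this pot test, flooded alluvial soil (water depth 4 cm) holds all three species sown as a mixture. Once seedlings have one to two leaves, the compound's emulsion, thinned with water to the intended dose, is poured on the water; grading follows after three weeks on the earlier criteria.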

[6] = test system: lambsquarters; assay: Test Example 4: herbicidal effect by soil treatment (Table 19, symbol O); assay type: in vivo, lambsquarters (Chenopodium album); conditions: amount of applied herbicide 320 g/ha
How it was run: as §2

[7] = test system: rice flat sedge; assay: Test Example 3: herbicidal effect by foliage application, Wagner pot (Table 18, symbol E); assay type: in vivo, rice flat sedge (Cyperus iria); conditions: amount of applied herbicide 320 g/ha
How it was run: (§3)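 Plants were sown in alluvial soil held under 0.1–0.5 cm standing water and grown 14 days in a greenhouse at 25–30 °C. An emulsifiable formulation, water-diluted to the set dose, was then sprayed onto the foliage, and effects were scored three weeks later using previously defined criteria.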

[8] = test system: Japanese bulrush; assay: Test Example 1: herbicidal activity, application before weed generation under submerged conditions (Table 16, symbol B); assay type: in vivo, Japanese bulrush (Schoenoplectus juncoides); conditions: 320 g/ha applied herbicide
How it was run: (§4)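 Submerged Wagner pots (alluvial soil, 4 cm water) sown with weed seeds and planted with 2.5-leaf rice seedlings; emulsifiable concentrate diluted in water applied to water surface on sowing day. Held in greenhouse at 25-30 °C; injury scored 0-5 by herbicidal rate after three weeks.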

[9] = test system: windgrass; assay: Test Example 5: herbicidal effect by foliage application, plastic box (Table 20, symbol L); assay type: in vivo, windgrass (Apera spica-venti); conditions: foliage application, AAH 320 g/ha, evaluated three weeks after application
How it was run: as §1

[10] = test system: wild oat; assay: Test Example 5: herbicidal effect by foliage application, plastic box (Table 20, symbol I); assay type: in vivo, wild oat (Avena fatua); conditions: foliage application, AAH 320 g/ha, evaluated three weeks after application
How it was run: as §1

[11] = test system: green foxtail; assay: Test Example 5: herbicidal effect by foliage application, plastic box (Table 20, symbol G); assay type: in vivo, green foxtail (Setaria viridis); conditions: foliage application, AAH 320 g/ha, evaluated three weeks after application
How it was run: as §1

[12] = test system: oval-leafed pondweed; assay: Test Example 1: herbicidal activity, application before weed generation under submerged conditions (Table 16, symbol C); assay type: in vivo, oval-leafed pondweed (Monochoria vaginalis); conditions: 320 g/ha applied herbicide
How it was run: as §4

[13] = test system: wild oat; assay: Test Example 4: herbicidal effect by soil treatment (Table 19, symbol I); assay type: in vivo, wild oat (Avena fatua); conditions: amount of applied herbicide 320 g/ha
How it was run: as §2

[14] = test system: Chinese sprangletop; assay: Test Example 3: herbicidal effect by foliage application, Wagner pot (Table 18, symbol D); assay type: in vivo, chinese sprangletop (Leptochloa chinensis); conditions: amount of applied herbicide 320 g/ha
How it was run: as §3

[15] = test system: barnyard grass; assay: Test Example 3: herbicidal effect by foliage application, Wagner pot (Table 18, symbol H); assay type: in vivo, barnyard grass (Echinochloa crus-galli); conditions: amount of applied herbicide 320 g/ha
How it was run: as §3

[16] = test system: blackgrass; assay: Test Example 5: herbicidal effect by foliage application, plastic box (Table 20, symbol J); assay type: in vivo, blackgrass (Alopecurus myosuroides); conditions: foliage application, AAH 320 g/ha, evaluated three weeks after application
How it was run: as §1

[17] = test system: barnyard grass; assay: Test Example 4: herbicidal effect by soil treatment (Table 19, symbol H); assay type: in vivo, barnyard grass (Echinochloa crus-galli); conditions: amount of applied herbicide 320 g/ha
How it was run: as §2

Row | SMILES | P: chickweed, herbicidal effect (criteria 0-5) [1] | herbicidal effect on L: windgrass [2] | herbicidal effect on M: velvetleaf [3] | M: velvetleaf, herbicidal effect (criteria 0-5) [4] | herbicidal effect rating, A: late watergrass [5] | herbicidal effect on O: lambsquarters [6] | herbicidal effect on E: rice flat sedge [7] | Herbicidal effect on B: Japanese bulrush (grade 0-5) [8] | L: windgrass, herbicidal effect (criteria 0-5) [9] | I: wild oat, herbicidal effect (criteria 0-5) [10] | G: green foxtail, herbicidal effect (criteria 0-5) [11] | Herbicidal effect on C: oval-leafed pondweed (grade 0-5) [12] | herbicidal effect on I: wild oat [13] | herbicidal effect on D: Chinese sprangletop [14] | herbicidal effect on H: barnyard grass [15] | J: blackgrass, herbicidal effect (criteria 0-5) [16] | herbicidal effect on H: barnyard grass [17]
1 | Cc1nn(C)c(=O)c(-c2c(-c3ccc(OC(F)F)cc3)sc3ccc(F)cc23)c1OC(=O)OCCCl [2-293] | 5 (Herbicidal rate of 90% or more (almost completely withered)) | 4 (Herbicidal rate of 70% or more and less than 90%) | 5 (Herbicidal rate of 90% or more (almost completely withered)) | 5 (Herbicidal rate of 90% or more (almost completely withered)) | 4 (Herbicidal rate of 70% or more and less than 90%) | 5 (Herbicidal rate of 90% or more (almost completely withered)) | 5 (Herbicidal rate of 90% or more (almost completely withered)) | 5 (Herbicidal rate of 90% or more (almost completely withered)) | 4 (Herbicidal rate of 70% or more and less than 90%) | 3 (Herbicidal rate of 40% or more and less than 70%) | 5 (Herbicidal rate of 90% or more (almost completely withered)) | 4 (Herbicidal rate of 70% or more and less than 90%) | 0 (Herbicidal rate of 5% or less (almost no effect)) | 3 (Herbicidal rate of 40% or more and less than 70%) | 5 (Herbicidal rate of 90% or more (almost completely withered)) | 5 (Herbicidal rate of 90% or more (almost completely withered)) | 5 (Herbicidal rate of 90% or more (almost completely withered))
2 | Cc1nn(C)c(=O)c(-c2c(-c3ccc(OC(F)F)cc3)sc3ccc(F)cc23)c1OC(=S)Sc1ccccc1 [2-298] | 5 (Herbicidal rate of 90% or more (almost completely withered)) | 0 (Herbicidal rate of 5% or less (almost no effect)) | 2 (Herbicidal rate of 20% or more and less than 40%) | 5 (Herbicidal rate of 90% or more (almost completely withered)) | 3 (Herbicidal rate of 40% or more and less than 70%) | 3 (Herbicidal rate of 40% or more and less than 70%) | 5 (Herbicidal rate of 90% or more (almost completely withered)) | 3 (Herbicidal rate of 40% or more and less than 70%) | 0 (Herbicidal rate of 5% or less (almost no effect)) | 4 (Herbicidal rate of 70% or more and less than 90%) | 5 (Herbicidal rate of 90% or more (almost completely withered)) | 3 (Herbicidal rate of 40% or more and less than 70%) | 0 (Herbicidal rate of 5% or less (almost no effect)) | 3 (Herbicidal rate of 40% or more and less than 70%) | 5 (Herbicidal rate of 90% or more (almost completely withered)) | 4 (Herbicidal rate of 70% or more and less than 90%) | 0 (Herbicidal rate of 5% or less (almost no effect))
3 | Cc1nn(C)c(=O)c(-c2c(-c3ccc(OC(F)F)cc3)sc3ccc(F)cc23)c1OCC(=O)c1ccccc1 [2-305] | 5 (Herbicidal rate of 90% or more (almost completely withered)) | 0 (Herbicidal rate of 5% or less (almost no effect)) | 1 (Herbicidal rate of 5% or more and less than 20%) | 5 (Herbicidal rate of 90% or more (almost completely withered)) | 3 (Herbicidal rate of 40% or more and less than 70%) | 3 (Herbicidal rate of 40% or more and less than 70%) | 3 (Herbicidal rate of 40% or more and less than 70%) | 5 (Herbicidal rate of 90% or more (almost completely withered)) | 1 (Herbicidal rate of 5% or more and less than 20%) | 1 (Herbicidal rate of 5% or more and less than 20%) | 5 (Herbicidal rate of 90% or more (almost completely withered)) | 2 (Herbicidal rate of 20% or more and less than 40%) | 0 (Herbicidal rate of 5% or less (almost no effect)) | 5 (Herbicidal rate of 90% or more (almost completely withered)) | 5 (Herbicidal rate of 90% or more (almost completely withered)) | 0 (Herbicidal rate of 5% or less (almost no effect)) | 0 (Herbicidal rate of 5% or less (almost no effect))
4 | Cc1nn(C)c(=O)c(-c2c(-c3ccc(O)cc3)sc3ccc(F)cc23)c1O [2-337] | 5 (Herbicidal rate of 90% or more (almost completely withered)) | 0 (Herbicidal rate of 5% or less (almost no effect)) | 0 (Herbicidal rate of 5% or less (almost no effect)) | 3 (Herbicidal rate of 40% or more and less than 70%) | 0 (Herbicidal rate of 5% or less (almost no effect)) | 0 (Herbicidal rate of 5% or less (almost no effect)) | 3 (Herbicidal rate of 40% or more and less than 70%) | 3 (Herbicidal rate of 40% or more and less than 70%) | 0 (Herbicidal rate of 5% or less (almost no effect)) | 0 (Herbicidal rate of 5% or less (almost no effect)) | 0 (Herbicidal rate of 5% or less (almost no effect)) | 3 (Herbicidal rate of 40% or more and less than 70%) | 0 (Herbicidal rate of 5% or less (almost no effect)) | 0 (Herbicidal rate of 5% or less (almost no effect)) | 3 (Herbicidal rate of 40% or more and less than 70%) | 0 (Herbicidal rate of 5% or less (almost no effect)) | 0 (Herbicidal rate of 5% or less (almost no effect))
